# Results as given in ChEMBL document CHEMBL4014279, “Synthesis of novel pyrazolo[3,4-b]quinolinyl acetamide analogs, their evaluation for antimicrobial and anticancer activities, validation by molecular modeling and CoMFA analysis” (Eur J Med Chem, 2017).
# The source made the active and inactive calls. The calls are words filed in the database; no cut-off is given here.
# How the values were obtained:
# [1] = test system: [Candida] aaseri; assay: Antifungal activity against Candida aaseri MTCC 1962 after 24 hrs by well diffusion method; type: functional; conditions: Yamadazyma aaseri, MTCC 1962, 24 h
# [2] = test system: Candida albicans; assay: Antifungal activity against Candida albicans MTCC 3017 after 24 hrs by well diffusion method; type: functional; conditions: MTCC 3017, 24 h
# [3] = test system: Nakaseomyces glabratus; assay: Antifungal activity against Candida glabrata MTCC 3019 after 24 hrs by well diffusion method; type: functional; conditions: MTCC 3019, 24 h
# [4] = test system: COLO 205; assay: Cytotoxicity against human COLO205 cells after 24 hrs by MTT assay; type: functional, cell-based; conditions: COLO 205, 24 h
# [5] = test system: Micrococcus luteus; assay: Antibacterial activity against Micrococcus luteus MTCC 2470 after 24 hrs by well diffusion method; type: functional; conditions: MTCC 2470, 24 h
# [6] = test system: HepG2; assay: Cytotoxicity against human HepG2 cells after 24 hrs by MTT assay; type: functional, cell-based; conditions: HepG2, 24 h
# [7] = test system: HeLa; assay: Cytotoxicity against human HeLa cells after 24 hrs by MTT assay; type: functional, cell-based
# [8] = test system: Candida albicans; assay: Antifungal activity against Candida albicans MTCC 854 after 24 hrs by well diffusion method; type: functional; conditions: MTCC 854, 24 h
# [9] = test system: Candida albicans; assay: Antifungal activity against Candida albicans MTCC 3958 after 24 hrs by well diffusion method; type: functional; conditions: MTCC 3958, 24 h
# [10] = test system: Candida albicans; assay: Antifungal activity against Candida albicans MTCC 4748 after 24 hrs by well diffusion method; type: functional; conditions: MTCC 4748, 24 h
# [11] = test system: Candida albicans; assay: Antifungal activity against Candida albicans MTCC 3018 after 24 hrs by well diffusion method; type: functional; conditions: MTCC 3018, 24 h
# [12] = test system: Pichia kudriavzevii; assay: Antifungal activity against Candida krusei MTCC 3020 after 24 hrs by well diffusion method; type: functional; conditions: MTCC 3020, 24 h
# [13] = test system: Candida parapsilosis; assay: Antifungal activity against Candida parapsilosis MTCC 1744 after 24 hrs by well diffusion method; type: functional; conditions: MTCC 1744, 24 h
# [14] = test system: Bacillus subtilis; assay: Antibacterial activity against Bacillus subtilis MTCC 121 after 24 hrs by well diffusion method; type: functional; conditions: MTCC 121, 24 h
# [15] = test system: Pseudomonas aeruginosa; assay: Antibacterial activity against Pseudomonas aeruginosa MTCC 2453 after 24 hrs by well diffusion method; type: functional; conditions: MTCC 2453, 24 h
# [16] = test system: Candida albicans; assay: Antifungal activity against Candida albicans MTCC 7315 after 24 hrs by well diffusion method; type: functional; conditions: MTCC 7315, 24 h
# [17] = test system: Raoultella planticola; assay: Antibacterial activity against Klebsiella planticola MTCC 530 after 24 hrs by well diffusion method; type: functional; conditions: MTCC 530, 24 h
# [18] = test system: Pichia sporocuriosa; assay: Antifungal activity against Issatchenkia hanoiensis MTCC 4755 after 24 hrs by well diffusion method; type: functional; conditions: MTCC 4755, 24 h
# [19] = test system: Candida albicans; assay: Antifungal activity against Candida albicans MTCC 1637 after 24 hrs by well diffusion method; type: functional; conditions: MTCC 1637, 24 h
# [20] = test system: Candida albicans; assay: Antifungal activity against Candida albicans MTCC 227 after 24 hrs by well diffusion method; type: functional; conditions: MTCC 227, 24 h
# [21] = test system: Escherichia coli; assay: Antibacterial activity against Escherichia coli MTCC 739 after 24 hrs by well diffusion method; type: functional; conditions: MTCC 739, 24 h
# [22] = test system: Candida albicans; assay: Antifungal activity against Candida albicans MTCC 183 after 24 hrs by well diffusion method; type: functional; conditions: MTCC 183, 24 h
# [23] = test system: Staphylococcus aureus; assay: Antibacterial activity against Staphylococcus aureus MLS16 MTCC 2940 after 24 hrs by well diffusion method; type: functional; conditions: MLS16 MTCC 2940, 24 h
# [24] = test system: A549; assay: Cytotoxicity against human A549 cells after 24 hrs by MTT assay; type: functional, cell-based; conditions: A549, 24 h
# [25] = test system: Staphylococcus aureus; assay: Antibacterial activity against Staphylococcus aureus MTCC 96 after 24 hrs by well diffusion method; type: functional; conditions: MTCC 96, 24 h
# [26] = test system: A549; assay: Cytotoxicity against human A549 cells at >100 uM after 24 hrs by MTT assay; type: functional, cell-based
# [27] = test system: HeLa; assay: Cytotoxicity against human HeLa cells at >100 uM after 24 hrs by MTT assay; type: functional, cell-based
# [28] = test system: HepG2; assay: Cytotoxicity against human HepG2 cells at >100 uM after 24 hrs by MTT assay; type: functional, cell-based
# [29] = test system: COLO 205; assay: Cytotoxicity against human COLO205 cells at >100 uM after 24 hrs by MTT assay; type: functional, cell-based
# [30] = test system: Candida albicans; assay: Antibiofilm activity against Candida albicans MTCC 4748 after 24 hrs by crystal violet staining based method; type: functional; conditions: MTCC 4748, 24 h
SMILES,IC50 [4],MIC [5],IC50 [6],IC50 [7],MIC [14],MIC [15],MIC [17],MIC [21],MIC [23],IC50 [24],MIC [25],Activity [26],Activity [27],Activity [28],Activity [29],further results
COc1ccc(NC(=O)Cn2nc(C(F)(F)F)c3c(-c4ccccc4)c4ccccc4nc32)cc1,19.6 µM,7.8 mg/L,20.4 µM,22.2 µM,62.5 mg/L,> 125 mg/L,7.8 mg/L,62.5 mg/L,62.5 mg/L,18.2 µM,31.2 mg/L,–,–,–,–,MIC [1]: 62.5 mg/L; MIC [2]: 31.2 mg/L; MIC [3]: 31.2 mg/L; MIC [8]: 31.2 mg/L; MIC [9]: 31.2 mg/L; MIC [10]: 62.6 mg/L; MIC [11]: 62.5 mg/L; MIC [12]: 62.5 mg/L; MIC [13]: 31.2 mg/L; MIC [16]: 31.2 mg/L; MIC [18]: 31.2 mg/L; MIC [19]: 62.5 mg/L; MIC [20]: 31.2 mg/L; MIC [22]: 62.5 mg/L
Cc1c2ccccc2nc2c1c(C(F)(F)F)nn2CC(=O)NC1CCCC1,–,7.8 to 125 mg/L,–,–,7.8 to 125 mg/L,7.8 to 125 mg/L,7.8 to 125 mg/L,7.8 to 125 mg/L,7.8 to 125 mg/L,–,7.8 to 125 mg/L,inactive,inactive,inactive,inactive,–
Cc1c2ccccc2nc2c1c(C(F)(F)F)nn2CC(=O)N1CCOCC1,–,7.8 to 125 mg/L,–,–,7.8 to 125 mg/L,7.8 to 125 mg/L,7.8 to 125 mg/L,7.8 to 125 mg/L,7.8 to 125 mg/L,–,7.8 to 125 mg/L,inactive,inactive,inactive,inactive,–
Cc1c2ccccc2nc2c1c(C(F)(F)F)nn2CC(=O)Nc1ccc([N+](=O)[O-])cc1,36.2 µM,7.8 to 125 mg/L,–,38.9 µM,7.8 to 125 mg/L,7.8 to 125 mg/L,7.8 to 125 mg/L,7.8 to 125 mg/L,7.8 to 125 mg/L,–,7.8 to 125 mg/L,inactive,–,inactive,–,–
O=C(Cn1nc(C(F)(F)F)c2c(-c3ccccc3)c3ccccc3nc21)NC1CC1,–,7.8 to 125 mg/L,–,–,7.8 to 125 mg/L,7.8 to 125 mg/L,7.8 to 125 mg/L,7.8 to 125 mg/L,7.8 to 125 mg/L,–,7.8 to 125 mg/L,inactive,inactive,inactive,inactive,–
O=C(Cn1nc(C(F)(F)F)c2c(-c3ccccc3)c3ccccc3nc21)N1CCN(CCO)CC1,–,7.8 to 125 mg/L,–,–,7.8 to 125 mg/L,7.8 to 125 mg/L,7.8 to 125 mg/L,7.8 to 125 mg/L,7.8 to 125 mg/L,–,7.8 to 125 mg/L,inactive,inactive,inactive,inactive,–
O=C(Cn1nc(C(F)(F)F)c2c(-c3ccccc3)c3ccccc3nc21)N1CCOCC1,–,15.6 mg/L,–,–,31.2 mg/L,> 125 mg/L,15.6 mg/L,62.5 mg/L,31.2 mg/L,–,62.5 mg/L,inactive,inactive,inactive,inactive,MIC [1]: 62.5 mg/L; MIC [2]: 31.2 mg/L; MIC [3]: 31.2 mg/L; MIC [8]: 62.5 mg/L; MIC [9]: 31.2 mg/L; MIC [10]: 31.2 mg/L; MIC [11]: 31.2 mg/L; MIC [12]: 31.2 mg/L; MIC [13]: 31.2 mg/L; MIC [16]: 15.6 mg/L; MIC [18]: 15.6 mg/L; MIC [19]: 62.5 mg/L; MIC [20]: 62.5 mg/L; MIC [22]: 31.2 mg/L
Clc1ccc(COC(Cn2ccnc2)c2ccc(Cl)cc2Cl)c(Cl)c1 (stereo not given) [MICONAZOLE],–,–,–,–,–,–,–,–,–,–,–,–,–,–,–,MIC [1]: 7.8 mg/L; MIC [2]: 7.8 mg/L; MIC [3]: 7.8 mg/L; MIC [8]: 7.8 mg/L; MIC [9]: 7.8 mg/L; MIC [10]: 7.8 mg/L; MIC [11]: 7.8 mg/L; MIC [12]: 7.8 mg/L; MIC [13]: 7.8 mg/L; MIC [16]: 7.8 mg/L; IC50 [30]: 2.6 µM; MIC [18]: 7.8 mg/L; MIC [19]: 7.8 mg/L; MIC [20]: 7.8 mg/L; MIC [22]: 7.8 mg/L
CCNC(=O)Cn1nc(C(F)(F)F)c2c(C)c3ccccc3nc21,16.4 µM,7.8 to 125 mg/L,20.8 µM,19.2 µM,7.8 to 125 mg/L,7.8 to 125 mg/L,7.8 to 125 mg/L,7.8 to 125 mg/L,7.8 to 125 mg/L,22.8 µM,7.8 to 125 mg/L,–,–,–,–,–
O=C(Cn1nc(C(F)(F)F)c2c(-c3ccccc3)c3ccccc3nc21)N1CCCCC1,19.3 µM,7.8 to 125 mg/L,30.2 µM,29.2 µM,7.8 to 125 mg/L,7.8 to 125 mg/L,7.8 to 125 mg/L,7.8 to 125 mg/L,7.8 to 125 mg/L,25.6 µM,7.8 to 125 mg/L,–,–,–,–,–
Cc1nn(CC(=O)N2CCCCC2)c2nc3ccccc3c(C)c12,11.9 µM,7.8 to 125 mg/L,15.5 µM,17 µM,7.8 to 125 mg/L,7.8 to 125 mg/L,7.8 to 125 mg/L,7.8 to 125 mg/L,7.8 to 125 mg/L,20.5 µM,7.8 to 125 mg/L,–,–,–,–,–
COc1ccc(NC(=O)Cn2nc(C(F)(F)F)c3c(C)c4ccccc4nc32)cc1,–,7.8 to 125 mg/L,–,–,7.8 to 125 mg/L,7.8 to 125 mg/L,7.8 to 125 mg/L,7.8 to 125 mg/L,7.8 to 125 mg/L,–,7.8 to 125 mg/L,inactive,inactive,inactive,inactive,–
Cc1c2ccccc2nc2c1c(C(F)(F)F)nn2CC(=O)NC1CCCCC1,24.5 µM,7.8 to 125 mg/L,29.6 µM,23.4 µM,7.8 to 125 mg/L,7.8 to 125 mg/L,7.8 to 125 mg/L,7.8 to 125 mg/L,7.8 to 125 mg/L,28.2 µM,7.8 to 125 mg/L,–,–,–,–,–
